According to patent US11166958B2, “4-pyrazin-2-ylmethyl-morpholine derivatives and the use thereof as medicament” (Boehringer Ingelheim International GmbH, priority 2018, dated 2021):
pIC50: −log10 of the molar value.

Columns and labels:
Nav1.6 channel = Nav1.6 channel (Homo sapiens (Human), UniProt Q9UQD0); experiment: Nav1.6 inhibition, IonWorks Quattro electrophysiology; type: cell-based
Method: IonWorks Quattro electrophysiological platform
The compounds were prepared in DMSO at 300× the final assay concentrations of 1 and 5 μM.
The 300× DMSO stock solutions were transferred into assay plates where 2 μl per well of each 300× stock solution were placed. All assay plates were stored at −80° C. until the day of assay.
On the day of the assay, the appropriate assay plate was thawed at room temperature, centrifuged, and 198 μl of external recording solution was added and mixed thoroughly. This provided a 1:100 dilution. A further 1:3 dilution occurred upon addition to the cells in the IonWorks Quattro electrophysiological platform, giving a 1:300 dilution in total. On each assay plate, at least 8 wells were reserved for vehicle control (0.3% DMSO) and at least 8 wells for each positive control specific to the cell line tested. The positive controls were tested at a maximal blocking and an approximate IC50 concentration. As positive control Lidocaine at concentrations of 30 and 1000 μM was used.
The solutions for recording Nav1.6 currents were as follows:
Amphotericin B was used to obtain electrical access to the cell interior at a final concentration of 200 μg/ml in internal recording solution.
State-dependent inhibition: Sodium channels when held at depolarized potential or long test pulse, the channels open and inactivate and then stay inactivated until the membrane potential is stepped back to hyperpolarized potentials, when the inactivated channels recover from inactivation into closed state.
Cells were held at −120 mV. In order to completely inactivate the sodium channels (pulse 1), the cells were pulsed to +0 mV for 2500 ms and stepped back to −120 mV for 10 ms (to completely recover from inactivation, however channels that had drugs bound to them will not recover from inactivation) before stepping to +0 mV for 20 ms (pulse 2).
Assay Control Results Both the positive and vehicle control data associated with each cell line assayed are shown below as an example. The mean is shown for each positive and negative control as solid symbol with the total number of individual well replicates given next to the solid symbol. In addition, the individual data of each well are shown on the graph as open symbols so that the variation about the mean value can be readily assessed.
Shown below are the assay controls for the Nav1.6 IonWorks Quattro assay.
Tables 3 and 4 show the normalized percentage inhibition of Nav1.6 channel. […] (see also the figure Assay Control Results above).

NMDA NR1/NR2B receptor = NMDA NR1/NR2B receptor (Homo sapiens (Human), UniProt Q13224); experiment: In vitro NMDA NR1/NR2B cell assay (FLIPR, intracellular calcium induced by glycine/glutamate); type: cell-based; conditions: HEK293 NR1/NR2B, 20 μM glycine / 1 μM glutamate, read-out: In vitro NR2B affinity, IC50
Method: A human HEK293 cell line with tetracyclin-inducible expression of NMDA NR1/NR2B receptor was used as a test system for compound efficacy and potency. The cell line was purchased from ChanTest, Catalog #CT6121. Compound activity was determined by measuring the effect of compounds on intracellular calcium concentration induced by glycine/glutamate agonism in a FLIPRtetra system (Molecular Devices).
The cells were obtained as frozen cells in cryo-vials and stored until use at −150° C. Cells were grown in culture medium (DMEM/F12, 10% FBS, 5 μg/mL Blasticidin, 150 μg/mL Zeozin, 500 μg/mL Geneticin). […] For sub-culturing the cells were detached from flasks by Versene. For the assay, cells were detached, washed twice with induction medium (DMEM/F12 without glutamine, 10% FBS, 2 μg/mL Tetracycline, 2 mM Ketamine) and seeded to 384 well pure coat amine plates (Becton Dickinson, 50000 cells per well in 50 μl) 48 h prior to assay in induction medium.
The test compounds were dissolved in 100% DMSO at a concentration of 10 mM and in a first step diluted in DMSO to a concentration of 5 mM, followed by serial dilution steps in 100% DMSO. Dilution factor and number of dilution steps may vary according to needs. Typically 8 different concentrations by 1:5 dilutions were prepared in duplicate, further intermediate dilutions (1:37.5) of the substances were carried out with aqueous assay buffer (137 mM NaCl, 4 mM KCl, 1.8 mM CaCl2), 10 mM HEPES, 10 mM Glucose, pH 7.4) resulting in a compound concentration 3 times above the final test concentration and DMSO at 2.7% resulting in 0.9% final DMSO concentration in the assay.
At the assay day cells were washed 3× with assay buffer (as described above), 10 μL buffer remained in the wells after washing. 10 μL Ca kit loading buffer (AAT Bioquest; prepared from the kit containing the following components: Component A: Fluo-8 NW dissolved in 200 μL DMSO and 20 μl of this solution are mixed with 10 ml buffer prepared out of component B and C, Component B: 10× Pluronic® F127 Plus diluted 1:10 in component C, Component C: HHBS (Hanks with 20 mM Hepes) was added to the cells and the plates were incubated with lid for 60 minutes at room temperature. 20 μl assay buffer containing 60 μM glycine (20 μM final) and 3 μM glutamate (1 μM final) was added to column 1-23, column 24 got assay buffer without glycine/glutamate to serve as negative unstimulated control. Fluorescence (indicating the calcium influx as a result of the NR1/NR2B ion channel activation) was read on the FLIPRtetra device for 60 seconds to monitor the glutamate induced effects. After 2 minutes 20 μL of compound dilution prepared as described above or controls (row 1-22) in assay buffer were carefully added to the wells. […] The average of 2 measurements at 5 minutes and 5 min 10 seconds after compound addition is calculated and further used for IC50 calculations. Each assay microtiter compound dilution plate contained wells (in column 23 or 24) with DMSO controls instead of compound as controls for glycine/glutamate induced fluorescence (high controls) and wells with 1 μM of a reference NR2B NAM as low controls (Compound 22; reference: Layton, Mark E et al, ACS Chemical Neuroscience 2011, 2(7), 352-362).
The output file of the reader contains the well number and measured average fluorescence units. For data evaluation and calculation, the measurement of the low control was set as 0% control and the measurement of the high control was set as 100% control. The IC50 values were calculated using the standard 4 parameter logistic regression formula. Calculation: [y=(a−d)/(1+(x/c)^b)+d], a=low value, d=high value; x=conc M; c=IC50 M; b=slope.

Sequence of NMDA NR1/NR2B receptor (Q13224 27-1484, other chains not shown): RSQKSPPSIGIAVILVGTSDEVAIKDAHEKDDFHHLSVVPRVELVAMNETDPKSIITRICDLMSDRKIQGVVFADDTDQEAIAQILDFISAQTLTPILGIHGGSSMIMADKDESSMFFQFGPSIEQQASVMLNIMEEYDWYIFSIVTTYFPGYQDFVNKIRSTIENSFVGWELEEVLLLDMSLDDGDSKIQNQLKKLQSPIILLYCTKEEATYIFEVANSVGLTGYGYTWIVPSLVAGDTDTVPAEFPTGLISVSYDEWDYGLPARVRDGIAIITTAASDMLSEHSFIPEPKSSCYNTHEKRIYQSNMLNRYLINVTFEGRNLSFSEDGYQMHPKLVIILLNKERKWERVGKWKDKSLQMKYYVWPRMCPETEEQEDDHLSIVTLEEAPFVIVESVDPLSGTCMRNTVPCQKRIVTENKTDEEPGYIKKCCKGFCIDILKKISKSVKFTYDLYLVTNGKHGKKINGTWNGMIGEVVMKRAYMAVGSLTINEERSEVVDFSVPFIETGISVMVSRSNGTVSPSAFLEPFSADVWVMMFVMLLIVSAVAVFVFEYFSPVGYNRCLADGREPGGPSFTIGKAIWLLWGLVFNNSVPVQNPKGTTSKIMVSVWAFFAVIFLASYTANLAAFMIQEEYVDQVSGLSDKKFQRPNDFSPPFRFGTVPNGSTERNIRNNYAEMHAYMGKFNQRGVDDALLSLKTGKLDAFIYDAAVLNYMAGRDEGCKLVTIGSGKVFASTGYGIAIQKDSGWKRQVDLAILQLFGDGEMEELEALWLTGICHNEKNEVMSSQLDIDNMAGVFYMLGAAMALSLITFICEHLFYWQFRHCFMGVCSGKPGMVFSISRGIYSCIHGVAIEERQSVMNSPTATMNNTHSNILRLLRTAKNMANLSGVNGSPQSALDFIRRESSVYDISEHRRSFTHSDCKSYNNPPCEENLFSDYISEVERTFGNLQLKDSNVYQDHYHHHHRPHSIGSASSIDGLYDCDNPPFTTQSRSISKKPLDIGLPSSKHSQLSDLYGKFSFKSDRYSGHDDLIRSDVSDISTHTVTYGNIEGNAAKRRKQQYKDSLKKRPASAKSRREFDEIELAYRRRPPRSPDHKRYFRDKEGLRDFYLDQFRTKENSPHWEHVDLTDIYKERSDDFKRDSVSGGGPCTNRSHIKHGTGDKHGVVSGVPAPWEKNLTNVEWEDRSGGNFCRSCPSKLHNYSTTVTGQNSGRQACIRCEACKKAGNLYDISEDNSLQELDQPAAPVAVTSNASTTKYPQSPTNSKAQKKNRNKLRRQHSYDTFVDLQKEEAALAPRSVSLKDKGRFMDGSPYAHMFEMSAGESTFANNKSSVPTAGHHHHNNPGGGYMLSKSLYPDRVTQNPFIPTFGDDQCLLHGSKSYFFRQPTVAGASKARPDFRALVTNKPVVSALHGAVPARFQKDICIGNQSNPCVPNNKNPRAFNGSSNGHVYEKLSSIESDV
Sequence of Nav1.6 channel (Q9UQD0 whole entry): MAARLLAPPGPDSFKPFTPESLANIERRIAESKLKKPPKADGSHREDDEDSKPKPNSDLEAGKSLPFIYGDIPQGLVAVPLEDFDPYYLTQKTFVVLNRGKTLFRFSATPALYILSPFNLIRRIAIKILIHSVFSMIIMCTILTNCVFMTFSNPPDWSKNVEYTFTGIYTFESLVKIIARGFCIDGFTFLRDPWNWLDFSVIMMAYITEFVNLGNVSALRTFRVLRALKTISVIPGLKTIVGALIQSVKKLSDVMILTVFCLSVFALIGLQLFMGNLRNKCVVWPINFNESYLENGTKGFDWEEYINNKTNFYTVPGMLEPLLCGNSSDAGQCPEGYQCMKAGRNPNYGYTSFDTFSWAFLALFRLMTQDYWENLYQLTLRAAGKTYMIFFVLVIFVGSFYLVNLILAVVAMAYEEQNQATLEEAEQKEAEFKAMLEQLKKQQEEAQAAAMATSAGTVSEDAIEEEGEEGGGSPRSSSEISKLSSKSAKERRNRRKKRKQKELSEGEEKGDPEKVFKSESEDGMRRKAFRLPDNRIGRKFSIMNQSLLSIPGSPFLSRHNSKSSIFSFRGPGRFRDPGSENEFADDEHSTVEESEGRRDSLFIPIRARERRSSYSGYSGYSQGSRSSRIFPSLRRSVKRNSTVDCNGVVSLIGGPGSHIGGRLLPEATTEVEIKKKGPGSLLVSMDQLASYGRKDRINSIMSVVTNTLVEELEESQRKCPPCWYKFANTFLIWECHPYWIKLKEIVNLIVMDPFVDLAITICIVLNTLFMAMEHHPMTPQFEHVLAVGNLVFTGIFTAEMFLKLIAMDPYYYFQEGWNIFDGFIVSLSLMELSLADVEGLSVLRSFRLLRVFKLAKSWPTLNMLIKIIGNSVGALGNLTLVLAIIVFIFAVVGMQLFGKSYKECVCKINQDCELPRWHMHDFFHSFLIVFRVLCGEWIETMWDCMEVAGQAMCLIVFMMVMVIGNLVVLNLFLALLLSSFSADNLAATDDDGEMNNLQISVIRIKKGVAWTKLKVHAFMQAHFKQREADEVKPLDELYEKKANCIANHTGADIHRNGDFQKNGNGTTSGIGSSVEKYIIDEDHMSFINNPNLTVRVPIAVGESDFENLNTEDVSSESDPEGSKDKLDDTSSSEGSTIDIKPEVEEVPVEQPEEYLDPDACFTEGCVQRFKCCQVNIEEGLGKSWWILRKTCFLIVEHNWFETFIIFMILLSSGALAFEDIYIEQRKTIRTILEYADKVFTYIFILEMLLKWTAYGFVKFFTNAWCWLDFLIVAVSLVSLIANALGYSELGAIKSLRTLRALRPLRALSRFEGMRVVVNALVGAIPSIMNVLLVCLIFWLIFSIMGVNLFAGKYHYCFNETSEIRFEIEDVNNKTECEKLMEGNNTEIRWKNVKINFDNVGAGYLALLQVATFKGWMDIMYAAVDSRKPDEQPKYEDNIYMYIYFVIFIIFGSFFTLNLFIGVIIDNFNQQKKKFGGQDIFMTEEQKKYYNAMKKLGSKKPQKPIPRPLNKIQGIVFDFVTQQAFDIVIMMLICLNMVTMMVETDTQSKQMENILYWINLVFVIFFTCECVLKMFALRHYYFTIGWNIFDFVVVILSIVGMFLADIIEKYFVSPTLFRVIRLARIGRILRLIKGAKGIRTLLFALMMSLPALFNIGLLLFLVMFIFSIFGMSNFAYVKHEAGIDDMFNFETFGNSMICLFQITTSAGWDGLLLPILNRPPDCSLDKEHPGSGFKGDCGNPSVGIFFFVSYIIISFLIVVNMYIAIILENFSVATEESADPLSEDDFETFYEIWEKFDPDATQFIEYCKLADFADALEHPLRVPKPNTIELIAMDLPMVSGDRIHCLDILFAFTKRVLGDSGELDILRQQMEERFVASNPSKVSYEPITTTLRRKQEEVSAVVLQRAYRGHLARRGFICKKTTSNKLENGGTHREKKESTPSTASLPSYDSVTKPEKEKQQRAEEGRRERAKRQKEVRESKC

| SMILES | pIC50 (NMDA NR1/NR2B receptor) | also measured |
| --- | --- | --- |
| CCCCNc1ccc(C(=O)OCCN(C)C)cc1 [Tetracaine, reference compound] |  | state-dependent inhibition of Nav1.6 (Nav1.6 channel; FIG. 1): much stronger at depolarized potentials than at hyperpolarized potential |
| CCN(CC)CC(=O)Nc1c(C)cccc1C [Lidocaine, reference compound] |  | inhibition at 1000 µM (Nav1.6 channel; read-out: maximum inhibition at P1 (not normalized)): 46.4 to 47.2%; inhibition of evoked Nav1.6 currents (Nav1.6 channel; reference compound, FIG. 2): inhibited evoked currents in a concentration and use dependent manner |
| CNC(=O)[C@@H]1CN(Cc2cnc(Oc3c(C)cccc3F)cn2)CCO1 [Example 36] | 6.27 |  |
| CNC(=O)[C@@H]1CN(Cc2cnc(Oc3c(F)cccc3F)cn2)CCO1 [Example 35] | 6.71 |  |
| CNC(=O)[C@@H]1CN(Cc2cnc(Oc3ccccc3)cn2)CCO1 [Example 34] | 6.19 |  |
